The test deals with T1, hCav2.2 (Homo sapiens, UniProt Q00975).
T1 construct: expressed in transfected cells; plasmids pCIN5-hCav2.2, pCIH-hCav β3, pCIP-α2δ1
The test is described as follows: hCav2.2 assay (IonWorks planar array electrophysiology, stable HEK293 cell line). The class given is cell-based. The note with it: inhibition of current elicited by the 1st depolarising pulse by 50%; HEK293 cells expressing human Cav2.2 α1B/β3/α2δ1; read-out: tonic pIC50 (converted). As for the experimental part: Compounds as defined in the first to third aspects may be tested for in vitro biological activity in the hCav2.2 assay in accordance with the following studies:
Stable cell lines expressing the human Cav2.2 α (α1B) subunit, along with the human β3 and α2δ1 auxiliary subunits were created following sequential transfection and selection of human embryonic kidney (HEK293) cells. HEK293 cells were cultured in Dulbecco's modified Eagles media/F12 media (Invitrogen, Cat #041-95750V) containing 10% fetal bovine serum, with added L-glutamine (2 mM; Invitrogen, Cat #25030-024) and non-essential amino acids (5%; Invitrogen, Cat #11140-035). Initially HEK293 cells were transfected with two plasmid vectors for expression of the hCav2.2 α subunit (pCIN5-hCav2.2 which carries a neomycin resistance marker) and the hCav β3 subunit (pCIH-hCav β3 which carries a hygromycin resistance marker). Clonal cell lines were isolated following selection in media supplemented with 0.4 mg ml^−1 Geneticin G418 (Invitrogen, Cat #10131-027) and 0.1 mg ml^−1 hygromycin (Invitrogen, Cat #10687-010). These clonal cell lines were assessed for Cav2.2 α/β3-mediated current expression using the IonWorks planar array electrophysiology technology (described below). A clonal line was identified that gave a reasonable level of functional Cav2.2 α/β3 current expression. This cell line was transfected with a plasmid vector for expression of the human α2δ1 subunit (pCIP-α2δ1 which carries a puromycin resistance marker) and clonal cell lines isolated following selection in media containing 0.62 μg ml^−1 puromycin (Sigma, Cat # P-7255), in addition to 0.4 mg ml^−1 Geneticin G418 and 0.1 mg ml^−1 hygromycin. […]
Currents were recorded at room temperature (21-23° C.) using the IonWorks planar array electrophysiology technology (Molecular Devices Corp.). […] In all experiments, the test pulse protocol was performed in the absence (pre-read) and presence (post-read) of a compound. Pre- and post-reads were separated by a compound addition followed by a 3-3.5 min incubation. […]
A general note: The patch-clamp technique gives a direct electrical read-out from membranes.

T1 sequence (Q00975 whole entry): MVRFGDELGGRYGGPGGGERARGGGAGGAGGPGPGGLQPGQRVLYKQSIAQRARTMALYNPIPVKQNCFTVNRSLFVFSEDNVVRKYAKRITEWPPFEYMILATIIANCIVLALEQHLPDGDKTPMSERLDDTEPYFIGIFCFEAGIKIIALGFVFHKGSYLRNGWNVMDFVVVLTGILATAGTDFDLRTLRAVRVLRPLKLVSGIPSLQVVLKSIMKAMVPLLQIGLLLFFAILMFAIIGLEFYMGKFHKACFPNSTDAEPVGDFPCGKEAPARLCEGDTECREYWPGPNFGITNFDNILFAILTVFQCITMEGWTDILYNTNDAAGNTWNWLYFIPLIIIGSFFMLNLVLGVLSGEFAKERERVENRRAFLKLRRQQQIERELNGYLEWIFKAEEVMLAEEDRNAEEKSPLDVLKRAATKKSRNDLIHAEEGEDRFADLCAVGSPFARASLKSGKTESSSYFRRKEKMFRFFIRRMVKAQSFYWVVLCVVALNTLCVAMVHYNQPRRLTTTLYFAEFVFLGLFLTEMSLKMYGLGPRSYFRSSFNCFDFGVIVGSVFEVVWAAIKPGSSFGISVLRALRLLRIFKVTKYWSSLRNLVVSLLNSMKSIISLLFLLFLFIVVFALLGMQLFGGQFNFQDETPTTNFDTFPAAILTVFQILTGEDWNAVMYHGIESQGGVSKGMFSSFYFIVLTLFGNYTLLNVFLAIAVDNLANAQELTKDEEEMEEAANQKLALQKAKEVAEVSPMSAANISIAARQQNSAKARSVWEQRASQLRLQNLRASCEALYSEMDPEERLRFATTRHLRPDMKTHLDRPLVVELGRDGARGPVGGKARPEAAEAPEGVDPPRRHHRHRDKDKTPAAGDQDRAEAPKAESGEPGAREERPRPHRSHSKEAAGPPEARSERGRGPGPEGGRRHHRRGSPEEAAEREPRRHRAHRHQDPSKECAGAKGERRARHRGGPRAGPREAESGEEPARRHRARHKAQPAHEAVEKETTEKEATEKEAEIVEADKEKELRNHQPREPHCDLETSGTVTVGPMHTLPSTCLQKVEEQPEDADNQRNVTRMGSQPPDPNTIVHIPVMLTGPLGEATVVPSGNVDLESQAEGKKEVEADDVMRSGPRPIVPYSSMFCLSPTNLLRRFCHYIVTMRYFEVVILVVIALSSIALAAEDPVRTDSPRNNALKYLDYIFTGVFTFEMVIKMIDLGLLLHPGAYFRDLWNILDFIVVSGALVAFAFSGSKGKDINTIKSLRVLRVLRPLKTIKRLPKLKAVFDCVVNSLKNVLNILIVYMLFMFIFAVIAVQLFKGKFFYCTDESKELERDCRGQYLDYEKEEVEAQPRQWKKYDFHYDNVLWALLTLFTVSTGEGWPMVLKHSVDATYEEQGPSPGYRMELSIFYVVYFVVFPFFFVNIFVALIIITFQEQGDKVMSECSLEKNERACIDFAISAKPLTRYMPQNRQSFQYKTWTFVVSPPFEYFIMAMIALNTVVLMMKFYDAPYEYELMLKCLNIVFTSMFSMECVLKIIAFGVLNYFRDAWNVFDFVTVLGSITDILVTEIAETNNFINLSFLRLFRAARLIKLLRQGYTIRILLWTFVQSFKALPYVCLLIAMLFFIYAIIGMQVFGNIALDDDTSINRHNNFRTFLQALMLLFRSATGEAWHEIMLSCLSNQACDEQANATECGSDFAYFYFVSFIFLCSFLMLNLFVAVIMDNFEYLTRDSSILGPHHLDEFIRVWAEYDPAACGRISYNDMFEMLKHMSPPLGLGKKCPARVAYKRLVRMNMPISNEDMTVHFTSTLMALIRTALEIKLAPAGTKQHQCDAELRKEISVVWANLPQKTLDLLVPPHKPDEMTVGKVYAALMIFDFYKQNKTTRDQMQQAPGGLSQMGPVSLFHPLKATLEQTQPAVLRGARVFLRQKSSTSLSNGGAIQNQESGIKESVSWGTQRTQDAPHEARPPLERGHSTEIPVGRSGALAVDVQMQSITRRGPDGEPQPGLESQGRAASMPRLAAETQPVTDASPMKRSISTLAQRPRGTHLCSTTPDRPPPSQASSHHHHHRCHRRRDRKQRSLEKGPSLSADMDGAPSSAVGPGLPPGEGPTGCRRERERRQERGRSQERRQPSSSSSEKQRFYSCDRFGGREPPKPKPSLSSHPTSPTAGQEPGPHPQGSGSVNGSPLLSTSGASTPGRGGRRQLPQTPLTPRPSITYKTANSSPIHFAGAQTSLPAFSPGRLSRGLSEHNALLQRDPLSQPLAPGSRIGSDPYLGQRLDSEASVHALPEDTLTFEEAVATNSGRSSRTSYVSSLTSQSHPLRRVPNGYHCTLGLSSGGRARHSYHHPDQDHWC

`Cc1cc(C(F)(F)F)ccc1S(=O)(=O)N1CCN2C(=O)c3cccnc3C2C1` (single isomer, unassigned) [24/25 (slower running enantiomer)]: the IC50 is ≤ 31.6 µM.

Turning to `Cc1ccc2c(n1)C1CN(S(=O)(=O)c3ccc(OC(C)C)cc3)CCN1C2=O` (stereo not drawn) [Compound 2, 2-Methyl-9-({4-[(1-methylethyl)oxy]phenyl}sulfonyl)-8,9,10,10a-tetrahydropyrido[2′,3′:3,4]pyrrolo-[1,2-a]pyrazin-5(7H)-one], the IC50 is 100 µM.

On to `Cc1ccc2c(n1)C1CN(S(=O)(=O)c3ccc(C(F)(F)F)cc3C)CCN1C2=O` (stereo not drawn) [Compound 18, 2-Methyl-9-{[2-methyl-4-(trifluoromethyl)phenyl]sulfonyl}-8,9,10,10a-tetrahydropyrido[2′,3′:3,4]pyrrolo-[1,2-a]pyrazin-5(7H)-one], for which the IC50 is ≤ 31.6 µM.
